Test results from US20150219624A1, “METHODS FOR IDENTIFYING ANTI-CANCER COMPOUNDS” (MEMORIAL SLOAN KETTERING CANCER CENTER, priority 2013, published 2015).

Tests used:
[1] = test system: KOPTK1 cells; assay: Metabolic labeling of nascent protein with L-azidohomoalanine (AHA); assay type: cell-based, human; details: 25 nM; p vs. vehicle 3.6×10−3
Description: (Non-radioactive) Metabolic labeling of nascent protein. KOPTK1 cells were labeled for nascent protein synthesis using Click-iTR AHA (L-azidohomoalanine) metabolic labeling reagent obtained from Invitrogen (cat no. C10102) as per manufacturer's instructions. Briefly, following silvestrol, Cycloheximide or DMSO treated cells were incubated in methionine free medium for 30 min prior to AHA labeling for 1 hr. Cells were fixed with 4% paraformaldehyde in PBS for 15 min, permeablized with 0.25% Triton X-100 in PBS for 15 min followed by one wash with 3% BSA. Cells were then stained using Alexa Fluor 488 Alkyne (Invitrogen cat no. A10267) with Click-iT Cell reaction Buffer Kit (Invitrogen cat no. C10269). Changes in mean fluorescence intensity as a measure of newly synthesized protein was detected by Flow cytometry analysis.
The number of ribosomes occupying a given transcript is given as gene specific RF reads per one million total reads (RPM).
FIG. 10 depicts ribosome profiling quality control data and effects on translation. A and B) Read counts by length of mapped sequence before and after filtering rRNA, linker reads, non-coding RNAs, short mapped sequences (“noisy” reads; see text and method for details). C and D) Read length frequency histograms and mapping analysis of ribosome footprint data after quality control filtering for vehicle treated cells (C) or silvestrol treated cells (D). […]

[2] = test system: GQ construct; assay: Luciferase reporter with four 12-mer motifs (GQs) vs random control 5'UTR; assay type: cell-based; details: 25 nM, 24 hours
Description: Luciferase assays. Four tandem repeats of the (CGG)4 12-mer motif (GQs) or random sequence matched for length and GC content (random) were cloned into the 5′UTR of Renilla luciferase plasmid pGL4.73. Empty firefly luciferase plasmid pGL4.13 or HCV-IRES firefly were used as internal controls. Luciferase assays were performed using Dual-Luciferase Reporter Assay System (Promega E1960) following the manufacturer's instructions. GQs sequence:
Next, directly testing the translational effect of the 12-mer sequence motif was sought. Briefly, a luciferase reporter system was constructed to directly compare four 12-mer motifs in tandem reflecting the common occurrence of multiple motifs in sensitive mRNAs (GQ construct) to a random sequence of equal length and GC content (control construct) and using an IRES-driven firefly luciferase as an internal control (FIG. 4E). […] The RNA helicases DHX9 and DHX36 have been implicated in resolving G-quadruplex structures (Booy et al., 2012; Chakraborty and Grosse, 2011), however predominant expression was found of eIF4A in T-ALL (FIG. 4G) (Van Vlierberghe et al., 2011). Further direct testing was done of the effect of RNAi-mediated eIF4A knockdown in the same assay and a striking decrease in the translation from the GQ reporter observed, with little effect on the control sequence (FIG. 4H/I). […]

## COC(=O)[C@H]1[C@@H](O)[C@@]2(O)c3c(OC)cc(O[C@@H]4O[C@@H]([C@H](O)CO)CO[C@H]4OC)cc3O[C@@]2(c2ccc(OC)cc2)[C@@H]1c1ccccc1 [silvestrol]
[1]
  max. reduction of nascent protein synthesis (AHA labeling): ~60%
[2]; normalized to IRES firefly
  translation of the GQ construct: reduced the translation
[2]; random sequence control construct
  translation of the control luciferase: did not reduce the translation
